Assays:
CYP2C19 = target: T1, CYP2C19 (Homo sapiens, UniProt P33261); test: Time-dependent inhibition of CYP2C19 in human liver microsomes; assay type: in vitro ADME; details: for (% Activity NADPH T0)/(% Activity NADPH T30): fold change; for activity at 30 min, 25 µM / activity at 0 min, 25 µM / activity at 30 min, 50 µM / activity at 0 min, 50 µM: pooled human liver microsomes, human liver microsomes; for activity at 30 min, 25 µM / activity at 30 min, 50 µM: after 30 minutes incubation, read-out: % Activity NADPH T30; for activity at 0 min, 25 µM / activity at 0 min, 50 µM: time zero, read-out: % Activity NADPH T0
T1 construct: Pooled human microsomes and selective CYP probe substrates were used; from tissue; host or cells: pooled human liver microsomes
Method: (§1) An assessment of the time-dependent Inhibitory Potential of the test compounds against Principal Human Cytochrome P450 Isozymes using Human Liver Microsomes was also carried out using standard methods (Grimm et al, Drug Metab. Dispos., July; 37(7):1355-70. doi: 10.1124/dmd.109.026716, 2009). Pooled human microsomes and selective CYP probe substrates were used for in vitro assessment of test compounds at 25 and 50 μM as time-dependent inhibitors of […] human hepatic cytochrome P450 isozymes (CYP1A2, 2B6, 2C9, 2C19, 2D6, and 3A4). LC-MS/MS was used to quantify metabolite formation. The inhibition of each P450 enzyme in human liver microsomes was measured as the percentage decrease in the activity of marker metabolite formation as measured by LC-MS/MS compared to non-inhibited controls (=100% activity) at time zero and after 30 minutes incubation. The occurrence of any time dependent inhibition was then expressed as the fold change in enzyme activity at time zero relative to the activity after 30 minutes incubation.

[1] = test system: bovine cardiac myofibrils; test: Myofibril assay (ATPase activity of skinned bovine cardiac myofibrils, PK/LDH-coupled); assay type: biochemical; details: inhibition of steady-state ATPase of bovine cardiac myofibrils; CaCl2 for 50% or 75% activation
Method: To evaluate the effect of compounds on the ATPase activity of full-length cardiac myosin in the context of the native sarcomere, skinned myofibril assays were performed. Bovine cardiac myofibrils were obtained by homogenizing bovine cardiac left ventricular tissue in the presence of a detergent such as triton X-100. Such treatment removes membranes and a majority of the soluble cytoplasmic proteins but leaves intact the cardiac sarcomeric acto-myosin apparatus. Myofibril preparations retain the ability to hydrolyze ATP in a Ca^2+ regulated manner. ATPase activities of such myofibril preparations in the presence and absence of compounds were assayed at Ca^2+ concentrations activating to a defined fraction of the maximal rate (i.e., […], 75%). Small molecule agents were assessed for their ability to inhibit the steady-state ATPase activity of bovine cardiac myofibrils using pyruvate kinase and lactate dehydrogenase (PK/LDH)-coupled enzyme system. This assay regenerates myosin-produced ADP into ATP by oxidizing NADH, producing an absorbance change at 340 nm. Prior to testing small molecule agents, the bovine cardiac myofibrils were assessed for their calcium responsiveness and the calcium concentration that achieves either a 50% (pCa50) or 75% (pCa75) activation of the myofibril system was chosen as the final condition for assessing the inhibitory activity of the small molecule agents. All enzymatic activity was measured in a buffered solution containing 12 mM PIPES (piperazine-N,N′-bis(2-ethanesulfonic acid), 2 mM magnesium chloride at pH 6.8 (PM 12 buffer). Final assay conditions were 1 mg/mL of bovine cardiac myofibrils, 4 U/mL pyruvate kinase, 6 U/mL lactate dehydrogenase, 50 μM ATP, 0.1 mg/mL BSA (bovine serum albumin), 10 ppm antifoam, 1 mM DTT, 0.5 mM NADH, 1.5 mM PEP, 0.6 mM EGTA, and an amount of CaCl2 sufficient to achieve either 50% or 75% activation of the myofibril ATPase activity. Results for compounds tested are provided in Table A. Compounds tested were prepared in accordance with the synthetic procedures described herein.

CYP1A2 = target: T2, CYP1A2 (Homo sapiens, UniProt P05177); test: Time-dependent inhibition of CYP1A2 in human liver microsomes; assay type: in vitro ADME; details: for (% Activity NADPH T0)/(% Activity NADPH T30): fold change; for activity at 30 min, 25 µM / activity at 0 min, 25 µM / activity at 30 min, 50 µM / activity at 0 min, 50 µM: pooled human liver microsomes, human liver microsomes; for activity at 30 min, 25 µM / activity at 30 min, 50 µM: after 30 minutes incubation, read-out: % Activity NADPH T30; for activity at 0 min, 25 µM / activity at 0 min, 50 µM: time zero, read-out: % Activity NADPH T0
T2 construct: Pooled human microsomes and selective CYP probe substrates were used; from tissue; host or cells: pooled human liver microsomes
T2 sequence (P05177 1-516): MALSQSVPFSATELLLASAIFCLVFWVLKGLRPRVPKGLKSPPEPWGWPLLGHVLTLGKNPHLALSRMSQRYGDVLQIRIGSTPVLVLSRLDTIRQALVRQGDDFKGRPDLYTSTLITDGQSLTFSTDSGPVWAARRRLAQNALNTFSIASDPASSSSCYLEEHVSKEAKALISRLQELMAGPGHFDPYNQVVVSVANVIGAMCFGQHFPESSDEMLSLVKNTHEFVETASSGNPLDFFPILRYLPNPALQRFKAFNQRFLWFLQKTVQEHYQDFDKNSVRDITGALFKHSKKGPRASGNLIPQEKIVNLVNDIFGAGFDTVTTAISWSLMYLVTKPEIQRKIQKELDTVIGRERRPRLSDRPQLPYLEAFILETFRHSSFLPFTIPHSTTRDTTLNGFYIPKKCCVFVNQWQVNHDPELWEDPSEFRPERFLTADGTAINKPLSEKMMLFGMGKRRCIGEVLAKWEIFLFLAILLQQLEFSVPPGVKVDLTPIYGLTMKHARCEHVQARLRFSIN
Method: as §1

T1 sequence (P33261 whole entry): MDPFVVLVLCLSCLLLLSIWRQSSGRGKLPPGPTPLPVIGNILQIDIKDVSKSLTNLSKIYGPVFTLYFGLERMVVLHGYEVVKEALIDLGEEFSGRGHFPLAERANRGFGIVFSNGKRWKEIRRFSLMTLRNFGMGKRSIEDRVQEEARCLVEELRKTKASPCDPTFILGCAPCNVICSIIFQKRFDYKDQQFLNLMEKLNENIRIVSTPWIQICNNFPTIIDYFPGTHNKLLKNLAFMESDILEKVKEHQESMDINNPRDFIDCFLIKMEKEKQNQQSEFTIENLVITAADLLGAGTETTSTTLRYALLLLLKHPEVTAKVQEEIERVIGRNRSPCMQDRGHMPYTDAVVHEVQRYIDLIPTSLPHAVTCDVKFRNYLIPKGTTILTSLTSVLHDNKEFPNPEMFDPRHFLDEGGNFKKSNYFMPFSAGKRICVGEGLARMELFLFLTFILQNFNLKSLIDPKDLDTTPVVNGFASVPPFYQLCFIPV

Row | Compound | (% Activity NADPH T0)/(% Activity NADPH T30) (CYP2C19; CYP2C19, 25 μM) | (% Activity NADPH T0)/(% Activity NADPH T30) (CYP2C19; CYP2C19, 50 μM) | activity at 30 min, 25 µM (CYP2C19; CYP2C19, 25 μM) [%] | activity at 0 min, 25 µM (CYP2C19; CYP2C19, 25 μM) [%] | activity at 30 min, 50 µM (CYP2C19; CYP2C19, 50 μM) [%] | activity at 0 min, 50 µM (CYP2C19; CYP2C19, 50 μM) [%] | CDMF IC15 [1] [nM] | (% Activity NADPH T0)/(% Activity NADPH T30) (CYP1A2; CYP1A2, 25 μM) | (% Activity NADPH T0)/(% Activity NADPH T30) (CYP1A2; CYP1A2, 50 μM) | activity at 30 min, 25 µM (CYP1A2; CYP1A2, 25 μM) [%] | activity at 0 min, 25 µM (CYP1A2; CYP1A2, 25 μM) [%] | activity at 30 min, 50 µM (CYP1A2; CYP1A2, 50 μM) [%] | activity at 0 min, 50 µM (CYP1A2; CYP1A2, 50 μM) [%]
1 | C[C@H]1CC[C@H](N2CC(=O)N(Cc3ccc(Cl)cc3)C3(CN(C(N)=O)C3)C2=O)CC1 [Compound 18, 5-(4-chlorobenzyl)-8-((1r,4r)-4-methylcyclohexyl)-6,9-dioxo-2,5,8-triazaspiro[3.5]nonane-2-carboxamide] | 1.0 | 1.1 | 99 | 103 | 84 | 91 | 1200 | 0.9 | 1.0 | 99 | 85 | 90 | 92
2 | CC(C)N1CC(=O)N(Cc2ccc(C(F)(F)F)cc2)C2(CN(c3cccnn3)C2)C1=O [Compound 13, 8-isopropyl-2-(pyridazin-3-yl)-5-(4-(trifluoromethyl)benzyl)-2,5,8-triazaspiro[3.5]nonane-6,9-dione] | 1.0 | 0.9 | 108 | 108 | 119 | 113 | 2000 | 0.9 | 0.8 | 99 | 88 | 110 | 92
3 | C[C@H]1CC[C@H](N2CC(=O)N(Cc3ccc(F)c(Cl)c3)C3(CN(C(N)=O)C3)C2=O)CC1 [Compound 7, 5-(3-chloro-4-fluorobenzyl)-8-((1r,4r)-4-methylcyclohexyl)-6,9-dioxo-2,5,8-triazaspiro[3.5]nonane-2-carboxamide] | 1.0 | 1.0 | 87 | 87 | 83 | 82 | 800 | 0.9 | 0.8 | 95 | 81 | 100 | 79

— US12286437B2, “Cardiac sarcomere inhibitors” (Cytokinetics, Inc., priority 2021, dated 2025)
